# From US11530222B2, “Substituted pyrrolopyrimidine and pyrazolopyrimidine as Bruton's tyrosine kinase (BTK) degraders” (ACCUTAR BIOTECHNOLOGY INC., priority 2021, dated 2022)
# Target: T1, BTK (Homo sapiens, UniProt Q06187)
# T1 construct: BTK Degradative Activity of Exemplary Compounds of the Present Disclosure in a RAMOS Cell Line; host or cells: RAMOS
# Test: BTK degradative activity in a RAMOS cell line (Western blot)
# Format: cell-based
# Conditions: 6 hours after administration, read-out: RAMOS BTK Degradation DC50
# Description: RAMOS (ATCC) cells were plated in 24-well plates at 8×10^5 cells/well in the RPMI growth medium containing 10% heat-inactivated FBS and 1× Penicillin Streptomycin, and then incubated at 37° C. overnight. The following day, the test compound was administered to the cells by using 1000× compound stock solution prepared in DMSO at various concentrations. After administration of the compound, the cells were then incubated at 37° C. for 6 hours.
# Upon completion, the cells were collected by centrifugation and lysed in Laemmli sample buffer (1×; VWR International). Proteins in cell lysate were separated by SDS-PAGE and transferred to Odyssey nitrocellulose membranes (Licor) with Iblot® dry blotting transfer system (ThermoFisher). Nonspecific binding was blocked by incubating membranes with Intercept Blocking Buffer (Licor) for 1 hour at room temperature with gentle shaking. The membranes were then incubated overnight at 4° C. with primary antibodies anti-BTK (Cell signaling, cat. #8547) and anti-GAPDH (Cell signaling, cat. #5179) diluted in Intercept Blocking Buffer containing 0.1% Tween 20. After washing 3 times with TBS-T, the membranes were incubated with IRDye® 800CW goat anti-mouse IgG (1:20,000, Licor) or IRDye® 800CW goat anti-rabbit IgG (1:20,000, Licor) for 1 hour. After TBS-T washes, membranes were rinsed in TBS and scanned on Odyssey® CLx Imaging System (Licor). The bands were quantified using Image Studio™ Software (Licor).
# Table 3 summarizes the BTK degradative activity of exemplary compounds of the present disclosure in a RAMOS cell line 6 hours after administration. The DC50 values (i.e., the concentration of test compound at which 50% of the target protein is degraded) were calculated. A designation of “A” corresponds to a DC50 value less than 10 nM. A designation of “B” corresponds to a DC50 value greater than or equal to 10 nM and less than 100 nM. A designation of “C” corresponds to a DC50 value greater than or equal to 100 nM.
# T1 sequence (Q06187 whole entry): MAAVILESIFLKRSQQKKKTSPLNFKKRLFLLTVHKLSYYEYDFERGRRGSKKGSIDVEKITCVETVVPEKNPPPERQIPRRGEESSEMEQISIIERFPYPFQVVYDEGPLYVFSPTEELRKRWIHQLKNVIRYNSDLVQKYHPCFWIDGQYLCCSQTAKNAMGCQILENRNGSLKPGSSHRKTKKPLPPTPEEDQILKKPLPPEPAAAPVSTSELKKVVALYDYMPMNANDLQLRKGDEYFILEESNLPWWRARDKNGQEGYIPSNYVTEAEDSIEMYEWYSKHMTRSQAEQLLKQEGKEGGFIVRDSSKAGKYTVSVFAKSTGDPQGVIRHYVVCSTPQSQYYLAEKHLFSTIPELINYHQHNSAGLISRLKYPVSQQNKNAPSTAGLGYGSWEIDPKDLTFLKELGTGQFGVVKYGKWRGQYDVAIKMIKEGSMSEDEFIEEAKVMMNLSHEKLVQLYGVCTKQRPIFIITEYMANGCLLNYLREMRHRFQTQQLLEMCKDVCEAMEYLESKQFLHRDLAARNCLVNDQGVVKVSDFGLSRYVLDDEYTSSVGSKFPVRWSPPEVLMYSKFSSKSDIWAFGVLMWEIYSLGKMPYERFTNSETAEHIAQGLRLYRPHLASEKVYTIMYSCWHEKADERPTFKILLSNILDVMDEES
row,DC50 [nM],Structure (SMILES)
1,10 to 100,"O=C1CCC(N2C(=O)c3ccc(N4CCN(CCCC(=O)N5CCC[C@@H](Nc6ncnc7[nH]cc(C(=O)c8ccc(Oc9ccccc9)cc8Cl)c67)C5)CC4)cc3C2=O)C(=O)N1 (stereo partly drawn) [Compound 19, 5-(4-(4-((R)-3-((5-(2-chloro-4-phenoxybenzoyl)-7H-pyrrolo[2,3-d]pyrimidin-4-yl)amino)piperidin-1-yl)-4-oxobutyl)piperazin-1-yl)-2-(2,6-dioxopiperidin-3-yl)isoindoline-1,3-dione]"
2,10 to 100,"O=C1CC[C@H](N2Cc3cc(N4CCN(CCCC(=O)N5CCC[C@@H](Nc6ncnc7[nH]cc(C(=O)c8ccc(Oc9ccccc9)cc8Cl)c67)C5)CC4)ccc3C2=O)C(=O)N1 [Compound 20, (S)-3-(5-(4-(4-((R)-3-((5-(2-chloro-4-phenoxybenzoyl)-7H-pyrrolo[2,3-d]pyrimidin-4-yl)amino)piperidin-1-yl)-4-oxobutyl)piperazin-1-yl)-1-oxoisoindolin-2-yl)piperidine-2,6-dione]"
3,10 to 100,"O=C1CC[C@H](N2Cc3cc(N4CCN(CCCCCCC(=O)N5CCC(Nc6ncnc7[nH]cc(C(=O)c8ccc(Oc9ccccc9)cc8Cl)c67)CC5)CC4)ccc3C2=O)C(=O)N1 [Compound 21, (S)-3-(5-(4-(7-(4-((5-(2-chloro-4-phenoxybenzoyl)-7H-pyrrolo[2,3-d]pyrimidin-4-yl)amino)piperidin-1-yl)-7-oxoheptyl)piperazin-1-yl)-1-oxoisoindolin-2-yl)piperidine-2,6-dione]"
4,10 to 100,"O=C1CC[C@H](N2C(=O)c3ccc(N4CCN(CCCCCCC(=O)N5CCC(Nc6ncnc7[nH]cc(C(=O)c8ccc(Oc9ccccc9)cc8Cl)c67)CC5)CC4)cc3C2=O)C(=O)N1 [Compound 22, 5-(4-(7-(4-((5-(2-chloro-4-phenoxybenzoyl)-7H-pyrrolo[2,3-d]pyrimidin-4-yl)amino)piperidin-1-yl)-7-oxoheptyl)piperazin-1-yl)-2-(2,6-dioxopiperidin-3-yl)isoindoline-1,3-dione]"
5,10 to 100,"O=C1CCC(N2C(=O)c3ccc(N4CCN(CCCC(=O)N5CCC(Nc6ncnc7[nH]cc(C(=O)c8ccc(Oc9ccccc9)cc8Cl)c67)CC5)CC4)cc3C2=O)C(=O)N1 (stereo not drawn) [Compound 23, 5-(4-(4-(4-((5-(2-chloro-4-phenoxybenzoyl)-7H-pyrrolo[2,3-d]pyrimidin-4-yl)amino)piperidin-1-yl)-4-oxobutyl)piperazin-1-yl)-2-(2,6-dioxopiperidin-3-yl)isoindoline-1,3-dione]"
6,10 to 100,"O=C1CC[C@H](N2Cc3cc(N4CCN(CCCC(=O)N5CCC(Nc6ncnc7[nH]cc(C(=O)c8ccc(Oc9ccccc9)cc8Cl)c67)CC5)CC4)ccc3C2=O)C(=O)N1 [Compound 24, (S)-3-(5-(4-(4-(4-((5-(2-chloro-4-phenoxybenzoyl)-7H-pyrrolo[2,3-d]pyrimidin-4-yl)amino)piperidin-1-yl)-4-oxobutyl)piperazin-1-yl)-1-oxoisoindolin-2-yl)piperidine-2,6-dione]"
7,< 10,"O=C1CC[C@H](N2Cc3cc(N4CCN(CCCCC(=O)N5CCC(Nc6ncnc7[nH]cc(C(=O)c8ccc(Oc9ccccc9)cc8Cl)c67)CC5)CC4)ccc3C2=O)C(=O)N1 [Compound 25, (S)-3-(5-(4-(5-(4-((5-(2-chloro-4-phenoxybenzoyl)-7H-pyrrolo[2,3-d]pyrimidin-4-yl)amino)piperidin-1-yl)-5-oxopentyl)piperazin-1-yl)-1-oxoisoindolin-2-yl)piperidine-2,6-dione]"
8,10 to 100,"O=C1CCC(N2C(=O)c3ccc(N4CCN(CCCN5CCC(Nc6ncnc7[nH]cc(C(=O)c8ccc(Oc9ccccc9)cc8Cl)c67)CC5)CC4)cc3C2=O)C(=O)N1 (stereo not drawn) [Compound 26, 5-(4-(3-(4-((5-(2-chloro-4-phenoxybenzoyl)-7H-pyrrolo[2,3-d]pyrimidin-4-yl)amino)piperidin-1-yl)propyl)piperazin-1-yl)-2-(2,6-dioxopiperidin-3-yl)isoindoline-1,3-dione]"
9,10 to 100,"O=C1CCC(N2C(=O)c3ccc(N4CCN(CCCCN5CCC(Nc6ncnc7[nH]cc(C(=O)c8ccc(Oc9ccccc9)cc8Cl)c67)CC5)CC4)cc3C2=O)C(=O)N1 (stereo not drawn) [Compound 27, 5-(4-(4-(4-((5-(2-chloro-4-phenoxybenzoyl)-7H-pyrrolo[2,3-d]pyrimidin-4-yl)amino)piperidin-1-yl)butyl)piperazin-1-yl)-2-(2,6-dioxopiperidin-3-yl)isoindoline-1,3-dione]"
10,10 to 100,"O=C1CCC(N2C(=O)c3ccc(N4CCN(CCCCCC(=O)N5CCC(Nc6ncnc7[nH]cc(C(=O)c8ccc(Oc9ccccc9)cc8Cl)c67)CC5)CC4)cc3C2=O)C(=O)N1 (stereo not drawn) [Compound 28, 5-(4-(6-(4-((5-(2-chloro-4-phenoxybenzoyl)-7H-pyrrolo[2,3-d]pyrimidin-4-yl)amino)piperidin-1-yl)-6-oxohexyl)piperazin-1-yl)-2-(2,6-dioxopiperidin-3-yl)isoindoline-1,3-dione]"
11,10 to 100,"O=C1CCC(N2C(=O)c3ccc(N4CCN(CCCCCCCN5CCC[C@@H](Nc6ncnc7[nH]cc(C(=O)c8ccc(Oc9ccccc9)cc8Cl)c67)C5)CC4)cc3C2=O)C(=O)N1 (stereo partly drawn) [Compound 29, 5-(4-(7-((R)-3-((5-(2-chloro-4-phenoxybenzoyl)-7H-pyrrolo[2,3-d]pyrimidin-4-yl)amino)piperidin-1-yl)heptyl)piperazin-1-yl)-2-(2,6-dioxopiperidin-3-yl)isoindoline-1,3-dione]"
12,≥ 100,"O=C1CCC(N2C(=O)c3ccc(N4CCN(CCCCCN5CCC[C@@H](Nc6ncnc7[nH]cc(C(=O)c8ccc(Oc9ccccc9)cc8Cl)c67)C5)CC4)cc3C2=O)C(=O)N1 (stereo partly drawn) [Compound 30, 5-(4-(5-((R)-3-((5-(2-chloro-4-phenoxybenzoyl)-7H-pyrrolo[2,3-d]pyrimidin-4-yl)amino)piperidin-1-yl)pentyl)piperazin-1-yl)-2-(2,6-dioxopiperidin-3-yl)isoindoline-1,3-dione]"
13,10 to 100,"O=C1CCC(N2C(=O)c3ccc(N4CCN(CCCCC(=O)N5CCC(Nc6ncnc7[nH]cc(C(=O)c8ccc(Oc9ccccc9)cc8Cl)c67)CC5)CC4)cc3C2=O)C(=O)N1 (stereo not drawn) [Compound 31, 5-(4-(5-(4-((5-(2-chloro-4-phenoxybenzoyl)-7H-pyrrolo[2,3-d]pyrimidin-4-yl)amino)piperidin-1-yl)-5-oxopentyl)piperazin-1-yl)-2-(2,6-dioxopiperidin-3-yl)isoindoline-1,3-dione]"
14,10 to 100,"O=C1CC[C@H](N2Cc3cc(N4CCN(CC5CCN(C(=O)N6CCC[C@@H](Nc7ncnc8[nH]cc(C(=O)c9ccc(Oc%10ccccc%10)cc9Cl)c78)C6)CC5)CC4)ccc3C2=O)C(=O)N1 [Compound 32, (S)-3-(5-(4-((1-((R)-3-((5-(2-chloro-4-phenoxybenzoyl)-7H-pyrrolo[2,3-d]pyrimidin-4-yl)amino)piperidine-1-carbonyl)piperidin-4-yl)methyl)piperazin-1-yl)-1-oxoisoindolin-2-yl)piperidine-2,6-dione]"
15,10 to 100,"O=C1CC[C@H](N2C(=O)c3ccc(N4CCN(CC5CCN(C(=O)N6CCC[C@@H](Nc7ncnc8[nH]cc(C(=O)c9ccc(Oc%10ccccc%10)cc9Cl)c78)C6)CC5)CC4)cc3C2=O)C(=O)N1 [Compound 33, 5-(4-((1-((R)-3-((5-(2-chloro-4-phenoxybenzoyl)-7H-pyrrolo[2,3-d]pyrimidin-4-yl)amino)piperidine-1-carbonyl)piperidin-4-yl)methyl)piperazin-1-yl)-2-((S)-2,6-dioxopiperidin-3-yl)isoindoline-1,3-dione]"
16,< 10,"O=C1CCC(N2C(=O)c3ccc(N4CCN(CCCCCN5CCC(Nc6ncnc7[nH]cc(C(=O)c8ccc(Oc9ccccc9)cc8Cl)c67)CC5)CC4)cc3C2=O)C(=O)N1 (stereo not drawn) [Compound 34, 5-(4-(5-(4-((5-(2-chloro-4-phenoxybenzoyl)-7H-pyrrolo[2,3-d]pyrimidin-4-yl)amino)piperidin-1-yl)pentyl)piperazin-1-yl)-2-(2,6-dioxopiperidin-3-yl)isoindoline-1,3-dione]"
17,≥ 100,"O=C1CCC(N2C(=O)c3cccc(C#CCCCCCCC(=O)N4CCC(Nc5ncnc6[nH]cc(C(=O)c7ccc(Oc8ccccc8)cc7Cl)c56)CC4)c3C2=O)C(=O)N1 (stereo not drawn) [Compound 35, 4-(9-(4-((5-(2-chloro-4-phenoxybenzoyl)-7H-pyrrolo[2,3-d]pyrimidin-4-yl)amino)piperidin-1-yl)-9-oxonon-1-yn-1-yl)-2-(2,6-dioxopiperidin-3-yl)isoindoline-1,3-dione]"
18,≥ 100,"O=C1CCC(N2C(=O)c3cccc(C#CCCCCC(=O)N4CCC(Nc5ncnc6[nH]cc(C(=O)c7ccc(Oc8ccccc8)cc7Cl)c56)CC4)c3C2=O)C(=O)N1 (stereo not drawn) [Compound 36, 4-(7-(4-((5-(2-chloro-4-phenoxybenzoyl)-7H-pyrrolo[2,3-d]pyrimidin-4-yl)amino)piperidin-1-yl)-7-oxohept-1-yn-1-yl)-2-(2,6-dioxopiperidin-3-yl)isoindoline-1,3-dione]"
